{"source": "patent US5338548A", "about": "“Method for increasing the storage stability of physostigmine” (priority 1993, dated 1994)", "key": {"[1]": {"settings": "systemic use; cited from earlier work"}, "tardive dyskinesia": {"tested_on": "tardive dyskinesia", "settings": "American Journal of Psychiatry, 134(7), 769-774; cited from earlier work"}, "long-term memory": {"tested_on": "long-term memory", "settings": "Davis et al., Science 201, 272 (1978); cited from earlier work"}, "[2]": {"tested_on": "skeletal muscle contraction", "settings": "background, myasthenia gravis; cited from earlier work"}, "[3]": {"settings": "tablets, oral dosage; cited from earlier work"}, "skin of rabbits": {"tested_on": "skin of rabbits", "test": "In Vivo Test of Physostigmine Free Base Patches (rabbit skin flux, 23 hours)", "description": "Pellethane™ 2363-80AE (24.4 g) was added to a solution of 101.3 g of THF containing 2.903 g of physostigmine free base and 2.951 g of isopropyl myristate and stirred until a clear solution was formed. After evaporation of the THF solvent, the liquid cast film of 2000 μm produced a dry matrix film 180-230 μm thick. A solution of Avery adhesive 460, containing 10 wt % isopropyl myristate was cast on the drug/polymer matrix film to produce an adhesive layer approximately 801 μm thick. The film was finally overlaid with a release liner film 1022 available from 3M Company and patches with an area of 7.92 cm^2 were cut from the laminated structure. These patches were weighed, heat sealed into polyethylene-foil pouches and stored until use.\nThe patches were then placed on the skin of rabbits from which the hair had been carefully clipped, after 23 hours, the patches were removed and the in vivo skin fluxes determined and summarized in Table II."}, "[4]": {"test": "Stability of Physostigmine Free Base in Polymer Matrix (patch storage, HPLC recovery)", "assay_type": "physicochemical", "settings": "for Weight of Physostigmine free base Recovered: polyurethane patch, n = 3", "description": "Increased stability of physostigmine free base in polymer matrices over solutions is shown in the following experiments. Patches containing physostigmine free base in a polymer matrix were prepared by dissolving 18 g of a polyether based polyurethane produced by Dow under the name Pellethane™ grade 2363-80AE, 2.0 g physostigmine free base and 2.0 g isopropyl myristate in 80 g THF. The solution was allowed to stand until clear. A second identical lot of polymer/drug solution was prepared containing 0.02 g of acetyl cystine. Clear solutions were cast onto the reverse side of a polyester-based release liner available from 3M Company of Minneapolis under the trade name Scotch™ 1002. After evaporation of the THF solvent, the liquid cast film of 2000 μm produced a dry matrix film 200-230 μm thick. Patches with an area of 7.9 cm^2 were cut from these laminated structures, packaged in polyethylene foil pouches and stored at room temperature and at 45° C.\nThree patches from each lot were tested for physostigmine free base content immediately after manufacture and after 7 and 25 days of storage at room temperature and at 45° C. Once the backing was removed from the patch, the drug-containing film was weighed and then dissolved in 25 g of THF, followed by dilution with 25 g on methanol. Precipitated Pellethane™ was filtered from the solution before injection into the HPLC. Average amounts of physostigmine free base recovered from the patches, with and without acetyl cysteine, are given in Table I. Theoretical drug loadings were 17.2 and 16.2 mg for the stabilized and unstabilized patches, respectively. Scatter in the weight data can be attributed to variation in film weights and analytical errors amounting to as much as ±10%."}, "[5]": {"test": "Stability of Physostigmine Free Base in Aqueous Solution (and in ethanol, isopropyl myristate), HPLC", "assay_type": "physicochemical", "description": "Relative stability of physostigmine free base in neutral or alkaline solution was determined as follows. Methanolic solution of physostigmine free base was acidified with a few drops of hydrochloric acid to lower the pH to about 3-6. […] Analysis was performed using HPLC Nova Pak 4-C18 column and a mobile phase consisting of:\n0.63 g 85% Phosphorous Acid\n0.96 g Sodium pentasulphonate\nIn the same manner, stability of physostigmine free base in neutral or slightly acidified water was determined and is shown in FIG. 2. […] In ethanol solution, 5% of the physostigmine free base was lost after 7 days and 10% after 27 days. At this rate of degradation, a patch would have lost 72% of its active ingredient in one year and 92% in two years."}, "[6]": {"settings": "individual patch (patch 1-12), 23 hours on rabbit skin"}}, "note": "Where “and” joins values, the source holds several entries; their conditions need not be identical. Equal entries are not always repeated. Entries after “also recorded” stand apart in the source; their conditions may differ.", "data": [{"smiles": "CNC(=O)Oc1ccc2c(c1)[C@]1(C)CCN(C)[C@@H]1N2C", "note": "[Physostigmine]", "values": [{"measurement": "therapeutic window", "setting": "[1]", "value": "narrow therapeutic window"}, {"measurement": "therapeutic effects on tardive dyskinesia", "setting": "tardive dyskinesia", "value": "positive therapeutic effects on tardive dyskinesia"}, {"measurement": "retrieval of information from long-term memory", "setting": "long-term memory", "value": "improved"}, {"measurement": "storage of information into long-term memory", "setting": "long-term memory", "value": "significantly enhanced storage of information into long-term memory"}, {"measurement": "strength of muscular contraction", "setting": "[2]", "value": "increased strength of muscular contraction"}, {"measurement": "drug blood levels for multiple oral doses", "setting": "[3]", "value": "typical variations in blood concentration ranging from a maxima above the required level (and possibly in the toxic range) to a minima which may be below the effective dose"}]}, {"smiles": "CNC(=O)Oc1ccc2c(c1)[C@]1(C)CCN(C)[C@@H]1N2C", "note": "[Physostigmine free base]", "values": [{"measurement": "Drug Delivered ΔMass", "setting": "skin of rabbits; Average of patches 1-12", "value": 14.0, "unit": "mg"}, {"measurement": "Drug Delivered ΔMass (%)", "setting": "skin of rabbits; Average of patches 1-12", "value": 69, "unit": "%"}, {"measurement": "Drug Remaining in Patch", "setting": "skin of rabbits; Average of patches 1-12", "value": 6.3, "unit": "mg"}, {"measurement": "ΔMass/time", "setting": "skin of rabbits; Average of patches 1-12", "value": 0.61, "unit": "mg/h"}, {"measurement": "Average Total Flux", "setting": "skin of rabbits; Average of patches 1-12, patch area 7.9 cm^2", "value": 77, "unit": "μg/cm^2 · hr"}, {"measurement": "Drug Delivered ΔMass", "setting": "skin of rabbits; [6]", "value": "15.0 mg and 14.0 mg and 15.7 mg and 12.0 mg and 16.0 mg and 12.8 mg and 14.3 mg and 13.7 mg and 15.2 mg and 12.7 mg and 11.8 mg"}, {"measurement": "Drug Delivered ΔMass (%)", "setting": "skin of rabbits; [6]", "value": "67% and 69% and 70% and 71% and 68%"}, {"measurement": "ΔMass/time", "setting": "skin of rabbits; [6]", "value": "0.65 mg/h and 0.61 mg/h and 0.68 mg/h and 0.52 mg/h and 0.70 mg/h and 0.56 mg/h and 0.62 mg/h and 0.60 mg/h and 0.66 mg/h and 0.55 mg/h and 0.51 mg/h"}, {"measurement": "Drug Remaining in Patch", "setting": "skin of rabbits; individual patch (patch 1-12), 23 hours on rabbit skin, measured by HPLC", "value": "7.4 mg and 6.8 mg and 7.1 mg and 5.2 mg and 6.7 mg and 6.2 mg and 6.5 mg and 5.7 mg and 4.9 mg"}, {"measurement": "Average Total Flux", "setting": "skin of rabbits; individual patch (patch 1-12), patch area 7.9 cm^2, 23 hours on rabbit skin", "value": "82 μg/cm^2 · hr and 77 μg/cm^2 · hr and 86 μg/cm^2 · hr and 66 μg/cm^2 · hr and 88 μg/cm^2 · hr and 71 μg/cm^2 · hr and 78 μg/cm^2 · hr and 75 μg/cm^2 · hr and 83 μg/cm^2 · hr and 70 μg/cm^2 · hr and 64 μg/cm^2 · hr"}, {"measurement": "drug delivered", "setting": "skin of rabbits; over the 23 hour period", "value": "approximately 70%"}, {"measurement": "Average Physostigmine free base flux", "setting": "skin of rabbits; text after Table II", "value": 160, "unit": "μg/cm^2 ·h"}, {"measurement": "discoloration of patches", "setting": "[4]; 25 days at 45° C.", "value": "slightly discolored"}, {"measurement": "Weight of Physostigmine free base Recovered", "setting": "[4]; No Preservative, 45° C., 0 days", "value": 15.0, "unit": "mg"}, {"measurement": "Weight of Physostigmine free base Recovered", "setting": "[4]; No Preservative, 45° C., 7 days", "value": 16.8, "unit": "mg"}, {"measurement": "Weight of Physostigmine free base Recovered", "setting": "[4]; No Preservative, 45° C., 25 days", "value": 18.5, "unit": "mg"}, {"measurement": "Weight of Physostigmine free base Recovered", "setting": "[4]; No Preservative, Room Temperature, 0 days", "value": 15.0, "unit": "mg"}, {"measurement": "Weight of Physostigmine free base Recovered", "setting": "[4]; No Preservative, Room Temperature, 7 days", "value": 16.5, "unit": "mg"}, {"measurement": "Weight of Physostigmine free base Recovered", "setting": "[4]; No Preservative, Room Temperature, 25 days", "value": 16.8, "unit": "mg"}, {"measurement": "Weight of Physostigmine free base Recovered", "setting": "[4]; With Preservative, 45° C., 0 days", "value": 15.1, "unit": "mg"}, {"measurement": "Weight of Physostigmine free base Recovered", "setting": "[4]; With Preservative, 45° C., 7 days", "value": 16.8, "unit": "mg"}, {"measurement": "Weight of Physostigmine free base Recovered", "setting": "[4]; With Preservative, 45° C., 25 days", "value": 16.8, "unit": "mg"}, {"measurement": "Weight of Physostigmine free base Recovered", "setting": "[4]; With Preservative, Room Temperature, 0 days", "value": 15.1, "unit": "mg"}, {"measurement": "Weight of Physostigmine free base Recovered", "setting": "[4]; With Preservative, Room Temperature, 7 days", "value": 17.3, "unit": "mg"}, {"measurement": "Weight of Physostigmine free base Recovered", "setting": "[4]; With Preservative, Room Temperature, 25 days", "value": 16.8, "unit": "mg"}, {"measurement": "additional peaks in HPLC analysis", "setting": "[4]; patches stored 25 days at 45° C.", "value": "no additional peaks were observed"}, {"measurement": "physostigmine free base loss during storage", "setting": "[4]; polyurethane patches, room temperature or 45° C., up to 25 days", "value": "no measurable physostigmine free base loss"}, {"measurement": "degraded at 168 h", "setting": "[5]; ethanol solution, after 7 days, read-out: physostigmine free base lost in ethanol solution", "value": 5, "unit": "%"}, {"measurement": "degraded at 648 h", "setting": "[5]; ethanol solution, after 27 days, read-out: physostigmine free base lost in ethanol solution", "value": 10, "unit": "%"}, {"measurement": "appearance of degradation (pink solution, rubreserine)", "setting": "[5]; methanolic solution acidified with HCl to pH about 3-6, after one or two hours", "value": "became pink due to accumulation of the degradation product rubreserine; also recorded: appearance of degradation products of the pink solution"}, {"measurement": "loss of initial drug in neutral solution", "setting": "[5]; neutral water, within 30 days, same storage conditions, FIG. 2", "value": "degrades rapidly with more than half of the initial drug gone"}, {"measurement": "stability in slightly acidified water", "setting": "[5]; room temperature, pH 3, FIG. 2", "value": "more stable, and slightly pink"}, {"measurement": "rate of degradation in ethanol and isopropyl myristate", "setting": "[5]; solvents ethanol and isopropyl myristate, compared with unbuffered and acidified water", "value": "slower than with unbuffered water but faster than with acidified water"}]}]}
